Reference: patent publication US5284850A, “Terpene amino alcohols and medicinal uses thereof” (Kuraray Co., Ltd., priority 1985, dated 1994)
Structures can show the parent of a compound that is named as a salt.

Key:
[1] = system: sensitized bronchial muscle; assay: Antiallergic action: inhibition of egg albumin-induced contraction of sensitized guinea pig bronchial muscle; assay type: tissue-based, guinea pigs of Hartley strain; conditions: Cavia porcellus; for inhibition at 100 µM: 10^-4 M; for inhibition at 10 µM: 10^-5 M; for inhibition at 1 µM: 10^-6 M; for inhibition at 0.1 µM: 10^-7 M; for inhibition at 0.01 µM: 10^-8 M
Method: Male guinea pigs of Hartley strain (body weight: about 250 g) were intraperitoneally or intramuscularly dosed with egg albumin (dose 100 mg/kg) and the same procedure was repeated after 3 days. After 3 to 4 weeks, the guinea pi-as were bled to death and the sensitized bronchial muscle was excised and cut into 1.5 mm thick rings. Three rings were joined to prepare a specimen. The specimen was suspended in a tissue bath and a load of 1 g was applied. […] After stabilization of the specimen (after about 1 hour), histamine hydrochloride was added to the bath at a final concentration of 10^-5 M. The contraction curve was recorded. After the contraction had been stabilized, the specimen was washed with 3 portions of Ringer's solution at 10-minute intervals to stabilize the contraction (about 1 hour was required). Then, the test compound was added to the tissue bath and, after an interval of 10 minutes, 5 mg/ml of egg albumin was added. The contraction amplitude of the specimen was measured and the percent inhibition was calculated according to the following formula. [formula] A: Contraction amplitude of control group when egg albumin is added A': Contraction amplitude of dosage group when egg albumin is added
H: Contraction amplitude of control group when histamine hydrochloride is added
H': Contraction amplitude of dosage group when histamine hydrochloride is added

[2] = cited from earlier work; for side effects: prior art
CO2 -treated mice = assay: Effect of improving the memories of amnesia models: CO2-induced amnesia, latency; assay type: in vivo, mice of ddK strain; conditions: 100 mg/kg oral
Text: (§1) The mice were allowed to take feeds and water freely. The device comprised a dark chamber (a rectangular box 20 cm high, with a floor grid, 12 cm×15 cm) and a bright chamber (a box with an open top and a floor grid, 15 cm×15 cm, surrounded by rectangular walls, 15 cm^w ×20 cm^H, on four sides). The two chambers were in contact with each other sharing a common surface of 15 cm×20 cm which is provided with an opening through which the mouse could move freely. A stainless steel wire, which was connected to an electric impulse apparatus (manufactured by Nippon Medical and Chemical Instruments Co., Ltd.), was placed on the floor grid in the dark chamber. The bright chamber was illuminated with a 60 W electric bulb from a height of about 45 cm above the floor grid. Each mouse was placed on the floor grid in the bright chamber. Immediately after the mouse (four limbs) entered the dark chamber, it was loaded with an electroshock cf DC 50 V through the floor grid for about three seconds. Immediately after electroshock loading, the mouse was taken out from the dark chamber. […] Immediately after the acquisition trials, each mouse was left in a container filled with carbon dioxide for a period of 8 seconds to induce amnesia. A 5% aqueous suspension of each test compound in gum arabic solution was administered orally to mice immediately after carbon dioxide loading or to mice immediately after completion of the acquisition trials following scopolamine administration.

Scopolamine-treated mice = assay: Effect of improving the memories of amnesia models: scopolamine-induced amnesia, latency; assay type: in vivo, mice of ddK strain; conditions: 100 mg/kg oral; for improvement of shortening of latency induced by scopolamine (in words): compared with calcium hopantenate and pramiracetam
Text: as §1, with “Scopolamine, […],” for “Immediately after the acquisition trials, each mouse”, “administered intraperitoneally to mice” for “left in a container filled with carbon dioxide for a period of 8 seconds”, “amnesia 20 minutes before initiation of acquisition trials.” for “amnesia.”

mice of ddK strain = assay: KCN anoxia test; assay type: in vivo; conditions: for Number of survivals/Number of mice used / Survival rate (%): 100 mg/kg i.p., KCN 2.65 mg/kg i.v. after 30 minutes, 180 seconds; for Number of survivals/Number of mice used: control 0/8; for Survival rate (%): control 0, *P < 0.05, **P < 0.01; for anti-anoxic action (in words): KCN anoxia test
[3] = CO2-treated control 37.6 ± 19.6
[4] = scopolamine-treated control 54.6 ± 14.5
[5] = CO2-treated control 106.5 ± 24.9, normal mice 394.2 ± 84.0
[6] = scopolamine-treated control 83.5 ± 21.5, normal mice 394.2 ± 84.0

Row | Compound | inhibition at 10 µM [1] | inhibition at 1 µM [1] | inhibition at 0.1 µM [1] | further results
1 | O=C(O)c1cc(=O)c2c(OCC(O)COc3cccc4oc(C(=O)O)cc(=O)c34)cccc2o1 [Disodium cromoglicate, disodium cromoglicate, reference compound] | 21% | 7.8% | 0% | inhibition at 100 µM [1]: 32.1%; inhibition at 0.01 µM [1]: 0%; antiallergic effect (in words) ([2]; administered by the oral route): does not produce an antiallergic effect
2 | CC(C)CCCC(C)CCCC(C)(O)C(O)CN(C)C(=O)c1cccnc1 (stereo not shown) [Compound (15), N-methyl-N-(3,7,11-trimethyl-2,3-hydroxydodecyl)nicotinamide] | 67% | 93% | – | inhibition at 100 µM [1]: 72.5%; memory activating action, CO2-induced amnesia (in words) (CO2 -treated mice): showed a tendency to activate memory; Latency, Mean ± S.E. (CO2 -treated mice; [3]): 163.9 ± 49.1 s; Latency, Mean ± S.E. (Scopolamine-treated mice; [4]): 65.2 ± 20.2 s; Number of survivals/Number of mice used (mice of ddK strain): 7/9; Survival rate (%) (mice of ddK strain): 77.8%; anti-anoxic action (in words) (mice of ddK strain): significantly high anti-anoxic action
3 | COc1ccc(/C=C/C(=O)Nc2ccccc2C(=O)O)cc1OC [Tranilast, tranilast, reference compound] | 54.8% | 21% | 0% | inhibition at 100 µM [1]: 32.1%; inhibition at 0.01 µM [1]: 0%; side effects [2]: cystitis-like symptoms such as hematuria, pyuria and dysuria
4 | CN1CCC(=C2c3ccccc3CC(=O)c3sccc32)CC1 [Ketotifen, ketotifen] | – | – | – | time until antiallergic effect manifests itself ([2]; delayed effect type): 4-6 weeks; side effects [2]: drowsiness
5 | CC(C)(CO)[C@@H](O)C(=O)NCCCC(=O)O [Calcium hopantenate, calcium hopantenate, reference compound] | – | – | – | memory activating action, CO2-induced amnesia (in words) (CO2 -treated mice): failed to show a significant memory activating action; Latency, Mean ± S.E. (CO2 -treated mice; [5]): 115.5 ± 40.6 s; Latency, Mean ± S.E. (Scopolamine-treated mice; [6]): 80.5 ± 17.2 s
6 | CC(C)CCCC(C)NC(C)C (stereo not shown) [Iproheptine hydrochloride, iproheptine hydrochloride] | – | – | – | side effects [2]: drowsiness and nausea
7 | CC(C)CCCC(C)CCCC(C)(O)C(CO)NCCO (stereo not shown) [Compound (67)] | 46% | 49% | 18% | –
8 | CC(C)=CCCC(C)(O)C(O)CN (stereo not shown) [Compound (43)] | – | 65% | – | –
9 | CC(C)CCCC(C)CCCC(C)CCCC(C)(O)C(O)CN(C)CCOC(=O)c1cccnc1 (stereo not shown) [Compound (36), 2-[N-(2,3-dihydroxy-3,7,11,15-tetramethylhexadecyl)-N-methylamino]ethyl nicotinate] | 45% | 20% | 8% | memory activating action, CO2-induced amnesia (in words) (CO2 -treated mice): very significantly improved the shortening of latency induced by carbon dioxide; Latency, Mean ± S.E. (CO2 -treated mice; [3]): 216.0 ± 69.0 s; Latency, Mean ± S.E. (CO2 -treated mice; CO2-treated control 139.4 ± 27.5, normal mice 375.7 ± 74.9, *P < 0.05): 336.6 ± 77.8 s; improvement of shortening of latency induced by scopolamine (in words) (Scopolamine-treated mice): significantly improved the shortening of latency induced by scopolamine; Latency, Mean ± S.E. (Scopolamine-treated mice; [4]): 78.5 ± 26.9 s; Latency, Mean ± S.E. (Scopolamine-treated mice; scopolamine-treated control 166.7 ± 36.7, normal mice 375.7 ± 74.9, *P < 0.05): 336.2 ± 55.4 s
10 | CC(C)CCCC(C)CCCC(C)(O)C(O)Cn1c(=O)[nH]c2ccccc21 (stereo not shown) [Compound (25)] | – | 69% | 47% | inhibition at 0.01 µM [1]: 19%
11 | CC(C)CCCC(C)CCCC(C)(O)C(O)CNc1ccncc1 (stereo not shown) [Compound (20)] | – | 71% | 40% | inhibition at 0.01 µM [1]: 15%
12 | CCCNC(CO)C(C)(O)CCC=C(C)C (stereo not shown) [Compound (52)] | 62% | 31% | 7% | inhibition at 0.01 µM [1]: 0%
13 | CC(C)CCCC(C)(O)C(O)CNCCO (stereo not shown) [Compound (10)] | 81.2% | 23.8% | – | –
14 | CNCC(O)C(C)CCCC(C)CCCC(C)C (stereo not shown) [Compound (28), 1-methylamino-3,7,11-trimethyl-2-dodecanol] | 66% | 49% | 35% | –
15 | CNCCC(C)(O)CCCC(C)(O)CCCC(C)C (stereo not shown) [Compound (27), 1-(methylamino)-3,7,11-trimethyl-3,7-dodecanediol] | – | – | 15.6% | –
16 | CC(C)CCCC(C)CCCC(C)(O)C(O)CN1CCN(C(c2ccccc2)c2ccccc2)CC1 (stereo not shown) [Compound (24)] | – | 75% | 60% | inhibition at 0.01 µM [1]: 25%
17 | CC(C)CCCC(C)CCCC(C)(O)C(O)CNCc1cccnc1 (stereo not shown) [Compound (41)] | – | – | 46% | –
18 | CC(C)CCCC(C)CCCC(C)(O)C(O)CN (stereo not shown) [Compound (11), 1-amino-3,7,11-trimethyl-2,3-dodecanediol] | 40.7% | 32.5% | – | –
19 | CCCCN(CCCC)C(CO)C(C)(O)CCCC(C)C (stereo not shown) [Compound (59), 2-(dibutylamino)-3,7-dimethyl-1,3-octanediol] | 49% | 51% | 0% | –
20 | CN(CCC(C)(O)CCCC(C)(O)CCCC(C)(C)O)Cc1ccccc1 (stereo not shown) [Compound (37), 1-(methylbenzylamino)-3,7,11-trimethyl-3,7,11-dodecanetriol] | – | – | 16% | –
21 | CC(C)N(CCNC(=O)CN1CCCC1=O)C(C)C [Pramiracetam, pramiracetam, reference compound] | – | – | – | memory activating action, CO2-induced amnesia (in words) (CO2 -treated mice): failed to show a significant memory activating action; Latency, Mean ± S.E. (CO2 -treated mice; [5]): 175.8 ± 42.9 s; Latency, Mean ± S.E. (Scopolamine-treated mice; [6]): 98.1 ± 24.9 s
22 | CC(C)CCCC(C)CCCC(C)(O)C(O)CN1CCSCC1 (stereo not shown) [Compound (26)] | 50% | 39% | 18% | –
23 | CC(C)CCCC(C)CCCC(C)(O)C(CO)n1ccnc1 (stereo not shown) [Compound (64)] | – | – | 63% | –
24 | CC(C)CCCC(C)CCCC(C)CCCC(C)(O)C(O)CN(C)CCO (stereo not shown) [Compound (35)] | 27.1% | 85.5% | 35% | inhibition at 0.01 µM [1]: 22%; memory activating action, CO2-induced amnesia (in words) (CO2 -treated mice): showed a tendency to activate memory; Latency, Mean ± S.E. (CO2 -treated mice; CO2-treated control 138.2 ± 43.6, normal mice 382.4 ± 83.6): 258.4 ± 94.5 s; improvement of shortening of latency induced by scopolamine (in words) (Scopolamine-treated mice): significantly improved the shortening of latency induced by scopolamine; Latency, Mean ± S.E. (Scopolamine-treated mice; scopolamine-treated control 169.0 ± 53.0, normal mice 382.4 ± 83.6): 320.2 ± 66.2 s; Number of survivals/Number of mice used (mice of ddK strain): 8/9; Survival rate (%) (mice of ddK strain): 88.9%; anti-anoxic action (in words) (mice of ddK strain): significantly high anti-anoxic action
25 | CC(C)CCCC(C)CCCC(C)(O)C(O)CN1CCCCC1 (stereo not shown) [Compound (39)] | – | – | 29.1% | –
